Measured values from publication PMC10054477, “Design, Synthesis, and Biological Evaluation of Sulfonamide Methoxypyridine Derivatives as Novel PI3K/mTOR Dual Inhibitors” (Pharmaceuticals, 2023).

Tests used:
PI3Kα = target: T1, PI3Kα (Homo sapiens, UniProt P42336); test: ADP-Glo kinase assay, PI3Kα enzyme inhibition; format: biochemical; details: for inhibition at 0.001 µM: at 1 nM
T1 construct: purchased SignalChem P27-122DH
Method: The enzymatic inhibitory assays of all target compounds against PI3Kα were performed with the ADP-Glo assay (Promega, Madison, WI, USA, catalog No. V9102/3). Briefly, compounds were continuously diluted to a certain concentration. […] The mixture was added to a 96-well plate and incubated in a dark place at ambient temperature for 40 min. Then, the kinase reaction was stopped by adding of ADP-Glo reagent and the plate was incubated again at ambient temperature for another 40 min. The kinase detection reagent was added and the signal was collected via PerkinElmer Envision plate reader (PE, Boston, MA, USA).

MCF-7 cells = test: CCK-8 cell viability assay, MCF-7; format: cell-based; details: Homo sapiens, MCF7, 72 h, mean (n = 3)
Method: (§1) MCF-7 and HCT-116 cells were purchased from the Meilunbio Biotechnology Co., Ltd. (Dalian, China). Cells were cultured at 37 °C with 5% CO2, using DMEM or RPMI 1640 medium (Meilunbio, Dalian, China) with 10% (v/v) fetal bovine serum (Gibco, San Diego, CA, USA) and 1% (v/v) penicillin and streptomycin (Meilunbio, Dalian, China). CCK-8 assay was used to determine the inhibitory effect in vitro. In short, cells were incubated into 96-well plates at the rate of 5000 cells per well. After 24 h of incubation, 100 μL medium was added, which contained a specific concentration of the test compound. After 72 h, 10 μL CCK-8 regent was added and the plate was incubated at 37 °C, 5% CO2 for 1 h. The optical density of each hole at 450 nm was read by a BioTek TS-800 microplate reader. GraphPad Prism 9.3.1 software was used to calculate the IC50 value.

HCT-116 cells = test: CCK-8 cell viability assay, HCT-116; format: cell-based; details: Homo sapiens, mean (n = 3)
Method: as §1

T1 sequence (P42336 whole entry): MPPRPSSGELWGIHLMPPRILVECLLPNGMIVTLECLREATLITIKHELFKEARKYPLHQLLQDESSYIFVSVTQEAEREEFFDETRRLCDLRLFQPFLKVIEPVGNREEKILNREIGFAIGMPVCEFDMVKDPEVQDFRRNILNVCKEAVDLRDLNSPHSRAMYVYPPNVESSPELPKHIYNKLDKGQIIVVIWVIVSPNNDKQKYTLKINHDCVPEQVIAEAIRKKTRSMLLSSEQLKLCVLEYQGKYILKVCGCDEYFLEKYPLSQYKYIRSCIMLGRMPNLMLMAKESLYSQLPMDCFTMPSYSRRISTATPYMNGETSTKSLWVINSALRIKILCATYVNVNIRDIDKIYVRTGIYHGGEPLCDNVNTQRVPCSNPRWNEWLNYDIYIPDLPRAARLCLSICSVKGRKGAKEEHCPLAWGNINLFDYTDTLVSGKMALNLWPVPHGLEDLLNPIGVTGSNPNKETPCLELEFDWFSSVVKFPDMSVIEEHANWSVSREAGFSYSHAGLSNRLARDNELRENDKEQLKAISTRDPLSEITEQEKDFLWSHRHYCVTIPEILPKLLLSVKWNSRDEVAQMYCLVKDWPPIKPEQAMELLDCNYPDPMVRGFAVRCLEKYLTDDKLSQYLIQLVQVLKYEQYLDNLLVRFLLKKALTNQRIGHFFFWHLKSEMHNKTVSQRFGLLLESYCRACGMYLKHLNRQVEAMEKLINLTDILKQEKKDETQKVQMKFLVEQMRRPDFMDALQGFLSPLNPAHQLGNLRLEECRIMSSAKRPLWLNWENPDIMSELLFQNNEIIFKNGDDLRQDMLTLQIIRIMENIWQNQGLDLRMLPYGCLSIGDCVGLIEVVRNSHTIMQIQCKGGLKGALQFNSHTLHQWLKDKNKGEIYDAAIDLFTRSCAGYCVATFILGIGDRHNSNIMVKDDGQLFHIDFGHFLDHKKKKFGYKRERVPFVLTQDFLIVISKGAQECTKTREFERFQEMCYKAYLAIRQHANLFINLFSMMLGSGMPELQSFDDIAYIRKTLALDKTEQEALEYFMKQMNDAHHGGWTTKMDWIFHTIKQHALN
T1 sequence (P27986 whole entry partner): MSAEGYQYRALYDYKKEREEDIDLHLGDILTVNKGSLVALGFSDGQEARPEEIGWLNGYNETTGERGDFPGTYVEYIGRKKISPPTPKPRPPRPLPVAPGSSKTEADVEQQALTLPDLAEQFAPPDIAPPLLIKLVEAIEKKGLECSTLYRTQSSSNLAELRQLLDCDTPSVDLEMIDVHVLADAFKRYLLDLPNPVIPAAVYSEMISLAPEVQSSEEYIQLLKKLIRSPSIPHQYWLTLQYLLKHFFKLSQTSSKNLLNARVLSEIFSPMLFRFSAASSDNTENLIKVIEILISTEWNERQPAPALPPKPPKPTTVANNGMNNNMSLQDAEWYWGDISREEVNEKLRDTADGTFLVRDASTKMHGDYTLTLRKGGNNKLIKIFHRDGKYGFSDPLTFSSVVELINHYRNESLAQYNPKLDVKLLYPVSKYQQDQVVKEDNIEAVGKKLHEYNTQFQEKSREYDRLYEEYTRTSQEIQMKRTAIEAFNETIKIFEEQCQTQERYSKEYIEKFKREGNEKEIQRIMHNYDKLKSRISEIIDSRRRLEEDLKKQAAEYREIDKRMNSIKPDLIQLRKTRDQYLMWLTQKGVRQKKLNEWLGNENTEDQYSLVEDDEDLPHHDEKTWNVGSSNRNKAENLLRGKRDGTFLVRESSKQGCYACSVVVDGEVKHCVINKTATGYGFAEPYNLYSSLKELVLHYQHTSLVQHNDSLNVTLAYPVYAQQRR

| Compound | IC50 (MCF-7 cells; Table 2) [µM] | IC50 (HCT-116 cells; Table 2, 72 h) [µM] | inhibition at 0.001 µM (PI3Kα; Table 3) [%] | IC50 (MCF-7 cells; Table 3) [µM] | IC50 (HCT-116 cells; Table 3, 72 h) [µM] | also measured |
| --- | --- | --- | --- | --- | --- | --- |
| COc1ncc(-c2cnc3ncnc(NC4CC4)c3c2)cc1NS(=O)(=O)c1ccc(F)cc1F [17b, N-(5-(4-(cyclopropylamino)pyrido[2,3-d]pyrimidin-6-yl)-2-methoxypyridin-3-yl)-2,4-difluorobenzenesulfonamide] | 0.91 ± 0.39 | 0.35 ± 0.17 | – | – | – | inhibition at 0.001 µM (PI3Kα; Table 2): 21% |
| COCCCNc1ncnc2c1sc1cc(-c3cnc(OC)c(NS(=O)(=O)c4ccc(F)cc4F)c3)ccc12 [11e, N-(2-methoxy-5-(4-((3-methoxypropyl)amino)benzo[4,5]thieno[3,2-d]pyrimidin-7-yl)pyridin-3-yl)-2,4-difluorobenzenesulfonamide] | – | – | – | – | – | inhibition at 0.001 µM (PI3Kα; Table 1): 35%; IC50 (MCF-7 cells; Table 1): > 1 µM; IC50 (HCT-116 cells; Table 1, 72 h): > 1 µM |
| COc1ncc(-c2cnc3ncnc(NC(C)C)c3c2)cc1NS(=O)(=O)c1ccc(F)cc1F [17a, 2,4-difluoro-N-(5-(4-(isopropylamino)pyrido[2,3-d]pyrimidin-6-yl)-2-methoxypyridin-3-yl)benzenesulfonamide] | 0.85 ± 0.3 | 0.59 ± 0.15 | – | – | – | inhibition at 0.001 µM (PI3Kα; Table 2): 39% |
| COc1ncc(-c2ccc3c(c2)sc2c(N4CCOCC4)ncnc23)cc1NS(=O)(=O)c1ccc(F)cc1F [11a, 2,4-difluoro-N-(2-methoxy-5-(4-morpholinobenzo[4,5]thieno[3,2-d]pyrimidin-7-yl)pyridin-3-yl)benzenesulfonamide] | – | – | – | – | – | inhibition at 0.001 µM (PI3Kα; Table 1): 10%; IC50 (MCF-7 cells; Table 1): 0.96 ± 0.23 µM; IC50 (HCT-116 cells; Table 1, 72 h): > 1 µM |
| COc1ncc(-c2cnc3ncnc(N4CCC(C)CC4)c3c2)cc1NS(=O)(=O)c1ccc(F)cc1F [17f, N-(2-methoxy-5-(4-(4-methylpiperidin-1-yl)pyrido[2,3-d]pyrimidin-6-yl)pyridin-3-yl)-2,4-difluorobenzenesulfonamide] | 0.86 ± 0.3 | 0.51 ± 0.25 | – | – | – | inhibition at 0.001 µM (PI3Kα; Table 2): 11% |
| CCCCNc1ncnc2c1sc1cc(-c3cnc(OC)c(NS(=O)(=O)c4ccc(F)cc4F)c3)ccc12 [11i, N-(5-(4-(butylamino)benzo[4,5]thieno[3,2-d]pyrimidin-7-yl)-2-methoxypyridin-3-yl)-2,4-difluorobenzenesulfonamide] | – | – | – | – | – | inhibition at 0.001 µM (PI3Kα; Table 1): 15%; IC50 (MCF-7 cells; Table 1): > 1 µM; IC50 (HCT-116 cells; Table 1, 72 h): > 1 µM |
| COCCCNc1ncnc2ncc(-c3cnc(OC)c(NS(=O)(=O)c4ccc(F)cc4F)c3)cc12 [17i, N-(2-methoxy-5-(4-((3-methoxypropyl)amino)pyrido[2,3-d]pyrimidin-6-yl)pyridin-3-yl)-2,4-difluorobenzenesulfonamide] | > 1 | > 1 | – | – | – | – |

More lines, main results first:

| IC50 (MCF-7 cells; Table 2) [µM] | IC50 (HCT-116 cells; Table 2, 72 h) [µM] | inhibition at 0.001 µM (PI3Kα; Table 3) [%] | IC50 (MCF-7 cells; Table 3) [µM] | IC50 (HCT-116 cells; Table 3, 72 h) [µM] | Compound | also measured |
| --- | --- | --- | --- | --- | --- | --- |
| – | – | 69 | 0.2 ± 0.09 | 0.13 ± 0.05 | COCCNC(=O)c1cnc(-c2ccnc3ccc(-c4cnc(OC)c(NS(=O)(=O)c5ccc(F)cc5F)c4)cc23)o1 [22e, 2-(6-(5-((2,4-difluorophenyl)sulfonamido)-6-methoxypyridin-3-yl)quinolin-4-yl)-N-(2-methoxyethyl)oxazole-5-carboxamide] | – |
| – | – | 15 | > 1 | > 1 | COc1ncc(-c2ccc3nccc(-c4ncc(C(=O)NCCc5ccc(Cl)cc5)o4)c3c2)cc1NS(=O)(=O)c1ccc(F)cc1F [22l, N-(4-chlorophenethyl)-2-(6-(5-((2,4-difluorophenyl)sulfonamido)-6-methoxypyridin-3-yl)quinolin-4-yl)oxazole-5-carboxamide] | – |
| – | – | 78 | 0.35 ± 0.11 | 0.06 ± 0.01 | COc1ncc(-c2ccc3nccc(-c4ncc(C(=O)NCC5CC5)o4)c3c2)cc1NS(=O)(=O)c1ccc(F)cc1F [22h, N-(cyclopropylmethyl)-2-(6-(5-((2,4-difluorophenyl)sulfonamido)-6-methoxypyridin-3-yl)quinolin-4-yl)oxazole-5-carboxamide] | IC50 (PI3Kα; mean (n = 2)): 0.37 nM |
| – | – | 20 | > 1 | > 1 | CCOC(=O)c1cnc(-c2ccnc3ccc(-c4cnc(OC)c(NS(=O)(=O)c5ccc(F)cc5F)c4)cc23)o1 [22a, Ethyl-2-(6-(5-((2,4-difluorophenyl)sulfonamido)-6-methoxypyridin-3-yl)quinolin-4-yl)oxazole-5-carboxylate] | – |
